Experimental data as given in ChEMBL document CHEMBL4507268 (2021).

Tests used:
[1] = molecular target: D(2) dopamine receptor (Homo sapiens) (UniProt P14416); conditions: Compound concentration 10.0 uM
[2] = species on record: Homo sapiens; conditions: Compound concentration 1.0 uM
[3] = molecular target: T1, Homeodomain-interacting protein kinase 4 (Homo sapiens) (UniProt Q8NE63); conditions: Compound concentration 1.0 uM
T1 sequence (whole entry): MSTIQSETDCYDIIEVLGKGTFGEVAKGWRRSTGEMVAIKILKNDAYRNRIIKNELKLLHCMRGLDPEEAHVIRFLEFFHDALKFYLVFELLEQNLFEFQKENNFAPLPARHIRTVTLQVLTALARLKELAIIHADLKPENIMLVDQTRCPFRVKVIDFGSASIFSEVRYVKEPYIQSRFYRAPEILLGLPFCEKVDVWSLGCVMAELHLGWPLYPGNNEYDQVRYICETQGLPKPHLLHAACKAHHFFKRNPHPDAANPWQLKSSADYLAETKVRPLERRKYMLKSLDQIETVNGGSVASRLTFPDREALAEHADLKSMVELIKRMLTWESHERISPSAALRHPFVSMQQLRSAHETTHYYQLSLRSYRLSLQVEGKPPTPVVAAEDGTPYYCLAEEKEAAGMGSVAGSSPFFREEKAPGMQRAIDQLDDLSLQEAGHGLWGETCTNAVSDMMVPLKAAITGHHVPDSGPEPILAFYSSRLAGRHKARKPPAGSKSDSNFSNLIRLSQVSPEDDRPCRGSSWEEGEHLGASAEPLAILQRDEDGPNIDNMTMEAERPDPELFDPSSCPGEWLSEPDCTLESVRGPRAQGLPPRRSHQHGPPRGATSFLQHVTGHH

[4] = molecular target: Mitogen-activated protein kinase 10 (Homo sapiens) (UniProt P53779); conditions: Compound concentration 1.0 uM
[5] = molecular target: Mitogen-activated protein kinase 1 (Homo sapiens) (UniProt P28482); conditions: Compound concentration 1.0 uM
[6] = molecular target: Serine/threonine-protein kinase PAK 4 (Homo sapiens) (UniProt O96013); conditions: Compound concentration 1.0 uM
[7] = molecular target: T2, Serine/threonine-protein kinase Sgk3 (Homo sapiens) (UniProt Q96BR1); conditions: Compound concentration 1.0 uM
T2 sequence (whole entry): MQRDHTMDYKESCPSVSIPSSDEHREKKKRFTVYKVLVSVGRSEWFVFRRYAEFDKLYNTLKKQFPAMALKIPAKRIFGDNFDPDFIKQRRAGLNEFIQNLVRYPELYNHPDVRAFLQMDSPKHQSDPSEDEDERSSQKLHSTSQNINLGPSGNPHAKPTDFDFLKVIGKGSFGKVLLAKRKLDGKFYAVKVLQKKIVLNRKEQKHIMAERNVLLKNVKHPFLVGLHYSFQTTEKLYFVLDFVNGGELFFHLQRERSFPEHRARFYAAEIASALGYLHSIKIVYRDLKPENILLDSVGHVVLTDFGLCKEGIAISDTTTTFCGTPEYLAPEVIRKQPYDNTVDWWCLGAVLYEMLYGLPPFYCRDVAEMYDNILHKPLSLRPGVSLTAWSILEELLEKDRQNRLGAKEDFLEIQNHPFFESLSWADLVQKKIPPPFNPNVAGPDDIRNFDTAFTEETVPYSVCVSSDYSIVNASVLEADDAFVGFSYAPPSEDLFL

[8] = molecular target: Serine/threonine-protein kinase 33 (Homo sapiens) (UniProt Q9BYT3); conditions: Compound concentration 1.0 uM
[9] = molecular target: T3, Serine/threonine-protein kinase tousled-like 1 (Homo sapiens) (UniProt Q9UKI8); conditions: Compound concentration 1.0 uM
T3 sequence (whole entry): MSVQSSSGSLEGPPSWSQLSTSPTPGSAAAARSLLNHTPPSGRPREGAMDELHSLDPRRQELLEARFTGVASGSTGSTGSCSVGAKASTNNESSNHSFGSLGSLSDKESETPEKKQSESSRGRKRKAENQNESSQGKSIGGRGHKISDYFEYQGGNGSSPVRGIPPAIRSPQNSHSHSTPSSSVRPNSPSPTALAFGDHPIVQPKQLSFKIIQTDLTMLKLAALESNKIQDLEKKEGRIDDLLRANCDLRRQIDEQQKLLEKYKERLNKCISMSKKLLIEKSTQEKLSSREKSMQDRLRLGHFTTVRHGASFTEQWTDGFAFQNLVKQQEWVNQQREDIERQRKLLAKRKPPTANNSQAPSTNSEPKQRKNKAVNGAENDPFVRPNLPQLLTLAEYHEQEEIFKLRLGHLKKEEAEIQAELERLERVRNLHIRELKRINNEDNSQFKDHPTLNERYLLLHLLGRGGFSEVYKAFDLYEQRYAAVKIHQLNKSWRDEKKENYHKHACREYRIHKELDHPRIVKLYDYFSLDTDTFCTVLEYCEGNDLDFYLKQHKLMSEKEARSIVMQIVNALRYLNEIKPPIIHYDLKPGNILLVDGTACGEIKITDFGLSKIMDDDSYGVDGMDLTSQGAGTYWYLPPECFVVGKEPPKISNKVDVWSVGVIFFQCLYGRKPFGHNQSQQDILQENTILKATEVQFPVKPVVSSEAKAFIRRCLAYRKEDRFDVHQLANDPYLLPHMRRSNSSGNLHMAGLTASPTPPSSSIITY

[10] = molecular target: Serine/threonine-protein kinase WNK1 (Homo sapiens) (UniProt Q9H4A3); conditions: Compound concentration 1.0 uM
[11] = molecular target: Serine/threonine-protein kinase WNK3 (Homo sapiens) (UniProt Q9BYP7); conditions: Compound concentration 1.0 uM
[12] = molecular target: PI3K p110 beta/p85 alpha (Homo sapiens) (UniProt P27986+P42338); conditions: Compound concentration 1.0 uM
Sequence of PI3K p110 beta/p85 alpha (Homo sapiens) (P27986 2-724 limits assumed): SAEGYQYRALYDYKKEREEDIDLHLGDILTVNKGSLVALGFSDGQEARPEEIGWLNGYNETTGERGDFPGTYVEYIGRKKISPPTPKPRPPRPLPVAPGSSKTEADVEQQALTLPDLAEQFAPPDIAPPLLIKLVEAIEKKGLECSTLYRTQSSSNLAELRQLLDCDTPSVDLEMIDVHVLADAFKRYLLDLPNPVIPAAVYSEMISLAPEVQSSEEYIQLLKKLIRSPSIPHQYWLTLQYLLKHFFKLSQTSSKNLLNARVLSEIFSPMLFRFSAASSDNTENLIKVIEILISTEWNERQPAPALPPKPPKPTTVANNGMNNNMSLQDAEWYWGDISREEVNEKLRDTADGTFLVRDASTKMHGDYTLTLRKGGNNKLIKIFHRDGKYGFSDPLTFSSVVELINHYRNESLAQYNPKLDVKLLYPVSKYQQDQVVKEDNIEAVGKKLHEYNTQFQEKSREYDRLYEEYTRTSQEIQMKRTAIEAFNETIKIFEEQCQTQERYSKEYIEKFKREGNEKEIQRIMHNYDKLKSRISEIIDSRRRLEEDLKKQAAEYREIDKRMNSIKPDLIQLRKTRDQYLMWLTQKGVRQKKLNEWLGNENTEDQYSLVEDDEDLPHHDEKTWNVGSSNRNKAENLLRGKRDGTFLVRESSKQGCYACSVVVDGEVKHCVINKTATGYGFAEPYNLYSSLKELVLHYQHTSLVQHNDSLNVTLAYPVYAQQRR
Sequence of PI3K p110 beta/p85 alpha (Homo sapiens) (P42338 whole entry partner): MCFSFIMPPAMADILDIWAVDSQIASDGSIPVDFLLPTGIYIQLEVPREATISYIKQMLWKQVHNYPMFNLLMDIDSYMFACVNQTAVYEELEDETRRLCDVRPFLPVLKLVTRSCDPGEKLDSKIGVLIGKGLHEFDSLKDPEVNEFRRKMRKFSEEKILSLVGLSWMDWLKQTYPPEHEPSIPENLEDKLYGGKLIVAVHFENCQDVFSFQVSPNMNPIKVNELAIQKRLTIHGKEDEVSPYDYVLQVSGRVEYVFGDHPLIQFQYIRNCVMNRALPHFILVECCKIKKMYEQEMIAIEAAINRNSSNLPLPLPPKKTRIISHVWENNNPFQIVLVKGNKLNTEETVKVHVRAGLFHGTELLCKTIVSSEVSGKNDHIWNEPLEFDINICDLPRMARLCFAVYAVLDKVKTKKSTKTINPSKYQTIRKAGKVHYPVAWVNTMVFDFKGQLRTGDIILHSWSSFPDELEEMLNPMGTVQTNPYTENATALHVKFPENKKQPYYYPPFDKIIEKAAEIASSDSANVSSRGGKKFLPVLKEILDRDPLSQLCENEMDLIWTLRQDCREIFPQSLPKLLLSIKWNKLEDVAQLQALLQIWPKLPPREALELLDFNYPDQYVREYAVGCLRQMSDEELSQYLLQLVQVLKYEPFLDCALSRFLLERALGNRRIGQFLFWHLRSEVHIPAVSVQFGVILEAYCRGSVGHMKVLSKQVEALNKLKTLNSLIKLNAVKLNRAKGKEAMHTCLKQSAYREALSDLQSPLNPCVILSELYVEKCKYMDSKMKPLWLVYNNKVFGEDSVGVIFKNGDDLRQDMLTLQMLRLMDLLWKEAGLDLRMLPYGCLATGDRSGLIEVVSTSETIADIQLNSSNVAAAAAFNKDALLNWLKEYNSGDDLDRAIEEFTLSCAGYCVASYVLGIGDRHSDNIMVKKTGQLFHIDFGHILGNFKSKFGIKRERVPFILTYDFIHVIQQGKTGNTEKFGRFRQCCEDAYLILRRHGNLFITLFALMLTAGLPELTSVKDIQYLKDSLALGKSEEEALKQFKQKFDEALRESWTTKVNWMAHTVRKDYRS

Sequence of Serine/threonine-protein kinase 33 (Homo sapiens) (Q9BYT3 whole entry, looked up): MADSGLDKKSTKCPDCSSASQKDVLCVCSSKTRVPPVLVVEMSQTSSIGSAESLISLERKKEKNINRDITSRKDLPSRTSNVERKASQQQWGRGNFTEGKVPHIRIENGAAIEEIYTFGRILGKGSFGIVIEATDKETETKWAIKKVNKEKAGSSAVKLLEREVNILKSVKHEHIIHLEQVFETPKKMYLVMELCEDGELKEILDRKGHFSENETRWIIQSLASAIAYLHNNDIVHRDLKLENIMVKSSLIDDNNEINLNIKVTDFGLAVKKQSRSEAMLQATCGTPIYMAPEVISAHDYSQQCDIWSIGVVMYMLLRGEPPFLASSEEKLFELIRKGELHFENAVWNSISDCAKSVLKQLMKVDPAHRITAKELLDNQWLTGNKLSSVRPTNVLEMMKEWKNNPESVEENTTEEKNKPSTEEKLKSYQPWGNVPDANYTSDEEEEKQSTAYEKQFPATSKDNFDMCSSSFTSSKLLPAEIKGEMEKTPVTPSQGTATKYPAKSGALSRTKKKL
Sequence of Serine/threonine-protein kinase WNK1 (Homo sapiens) (Q9H4A3 whole entry, looked up): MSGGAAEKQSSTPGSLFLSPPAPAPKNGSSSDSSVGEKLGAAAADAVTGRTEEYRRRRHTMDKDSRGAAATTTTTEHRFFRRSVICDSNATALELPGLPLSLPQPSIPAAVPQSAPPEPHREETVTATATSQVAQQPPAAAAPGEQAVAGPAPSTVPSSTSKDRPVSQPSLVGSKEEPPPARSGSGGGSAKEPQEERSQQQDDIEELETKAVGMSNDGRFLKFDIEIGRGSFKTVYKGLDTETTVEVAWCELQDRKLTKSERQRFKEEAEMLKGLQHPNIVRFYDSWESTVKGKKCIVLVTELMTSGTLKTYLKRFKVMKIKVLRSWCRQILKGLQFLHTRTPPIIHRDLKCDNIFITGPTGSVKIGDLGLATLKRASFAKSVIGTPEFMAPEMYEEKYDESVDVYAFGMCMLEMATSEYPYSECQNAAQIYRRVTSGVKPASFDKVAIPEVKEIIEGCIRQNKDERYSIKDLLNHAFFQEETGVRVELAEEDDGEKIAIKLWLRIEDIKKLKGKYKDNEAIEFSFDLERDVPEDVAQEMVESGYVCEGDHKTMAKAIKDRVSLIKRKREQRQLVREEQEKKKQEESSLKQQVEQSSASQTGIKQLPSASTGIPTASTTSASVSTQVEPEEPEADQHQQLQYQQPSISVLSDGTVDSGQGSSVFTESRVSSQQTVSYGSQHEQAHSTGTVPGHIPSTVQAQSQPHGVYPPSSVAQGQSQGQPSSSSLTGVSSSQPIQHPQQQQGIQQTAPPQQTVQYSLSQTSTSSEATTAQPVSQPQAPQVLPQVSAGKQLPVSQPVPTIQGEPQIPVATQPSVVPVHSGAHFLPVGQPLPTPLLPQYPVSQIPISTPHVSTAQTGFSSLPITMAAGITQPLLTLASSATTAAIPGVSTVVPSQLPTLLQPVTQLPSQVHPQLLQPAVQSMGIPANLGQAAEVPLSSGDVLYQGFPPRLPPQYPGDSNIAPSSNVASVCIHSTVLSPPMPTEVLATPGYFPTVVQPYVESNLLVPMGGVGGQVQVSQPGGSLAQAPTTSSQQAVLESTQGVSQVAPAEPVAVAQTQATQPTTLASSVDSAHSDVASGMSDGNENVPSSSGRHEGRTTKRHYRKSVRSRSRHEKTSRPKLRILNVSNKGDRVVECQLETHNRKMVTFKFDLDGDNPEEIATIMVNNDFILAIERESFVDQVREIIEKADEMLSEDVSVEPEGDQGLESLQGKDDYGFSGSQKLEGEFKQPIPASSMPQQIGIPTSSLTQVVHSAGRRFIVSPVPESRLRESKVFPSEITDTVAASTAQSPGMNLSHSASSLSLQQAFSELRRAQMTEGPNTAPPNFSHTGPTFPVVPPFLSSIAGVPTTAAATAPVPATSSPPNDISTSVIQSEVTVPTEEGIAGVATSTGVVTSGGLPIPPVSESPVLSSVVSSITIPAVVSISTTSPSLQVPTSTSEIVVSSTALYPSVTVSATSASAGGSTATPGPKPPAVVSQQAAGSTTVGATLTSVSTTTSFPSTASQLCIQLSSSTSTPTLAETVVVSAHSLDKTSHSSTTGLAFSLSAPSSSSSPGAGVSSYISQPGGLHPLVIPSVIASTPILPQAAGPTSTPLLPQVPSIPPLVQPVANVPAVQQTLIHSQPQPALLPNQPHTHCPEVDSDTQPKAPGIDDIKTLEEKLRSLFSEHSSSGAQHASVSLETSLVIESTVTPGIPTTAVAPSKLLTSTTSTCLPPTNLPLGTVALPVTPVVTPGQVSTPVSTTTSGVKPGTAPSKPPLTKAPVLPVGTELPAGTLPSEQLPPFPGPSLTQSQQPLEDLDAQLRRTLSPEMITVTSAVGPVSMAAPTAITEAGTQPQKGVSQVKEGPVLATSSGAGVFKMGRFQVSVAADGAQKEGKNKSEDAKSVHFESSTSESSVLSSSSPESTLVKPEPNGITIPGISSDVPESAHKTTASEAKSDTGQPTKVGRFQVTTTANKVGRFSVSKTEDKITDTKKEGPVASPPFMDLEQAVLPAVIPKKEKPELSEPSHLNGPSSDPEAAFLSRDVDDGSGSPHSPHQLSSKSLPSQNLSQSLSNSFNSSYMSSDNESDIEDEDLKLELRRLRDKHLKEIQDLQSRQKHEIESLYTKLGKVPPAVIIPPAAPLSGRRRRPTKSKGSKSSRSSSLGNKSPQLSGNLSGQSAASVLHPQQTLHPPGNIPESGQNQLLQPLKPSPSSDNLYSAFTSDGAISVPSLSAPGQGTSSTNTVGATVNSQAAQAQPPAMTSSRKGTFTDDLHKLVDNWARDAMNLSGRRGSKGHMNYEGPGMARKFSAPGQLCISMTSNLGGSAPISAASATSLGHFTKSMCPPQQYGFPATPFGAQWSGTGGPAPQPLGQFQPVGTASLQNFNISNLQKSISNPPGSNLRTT
Sequence of Mitogen-activated protein kinase 1 (Homo sapiens) (P28482 whole entry): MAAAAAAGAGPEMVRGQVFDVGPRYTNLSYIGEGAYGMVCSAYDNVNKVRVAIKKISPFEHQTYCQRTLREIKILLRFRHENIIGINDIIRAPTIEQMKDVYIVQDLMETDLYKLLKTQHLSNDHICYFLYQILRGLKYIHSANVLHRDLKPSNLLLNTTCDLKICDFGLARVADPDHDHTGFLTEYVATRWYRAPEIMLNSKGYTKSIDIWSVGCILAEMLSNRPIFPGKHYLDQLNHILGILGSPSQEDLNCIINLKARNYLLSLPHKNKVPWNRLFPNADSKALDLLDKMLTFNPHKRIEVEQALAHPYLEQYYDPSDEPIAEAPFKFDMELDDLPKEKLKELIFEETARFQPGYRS

Cc1nc(C2CCN(C(=O)c3ccc(OC(F)(F)F)cc3N)CC2)c2ncc(N3CCN(C)CC3)cc2n1 [BAY-693]
inactive: inhibition [1] 2.97%

CN1CCN(c2cnc3c(C4CCN(C(=O)c5ccc(OC(F)(F)F)cc5N)CC4)ncnc3c2)CC1 [BAY-885]
inactive: % residual kinase activity [2] 107% | % residual kinase activity [3] 94% | % residual kinase activity [4] 111% | % residual kinase activity [5] 116% | % residual kinase activity [6] 101% | % residual kinase activity [7] 104% | % residual kinase activity [8] 103% | % residual kinase activity [9] 106% | % residual kinase activity [10] 105% | % residual kinase activity [11] 107% | % residual kinase activity [12] 98%
